Results: patent US20120058236A1, “SWEETENER COMPOSITION COMPRISING HIGH SOLUBILITY FORM OF REBAUDIOSIDE A AND METHOD OF MAKING” (Cargill Incorporated, priority 2009, published 2012)

Experiments:
[1] = assay type: physicochemical
Protocol: (§1) 10 mg of sample was mixed with 0.5 mL deionized water and stirred by a magnetic stirrer at room temperature. As the solid was completely dissolved, more solid was added to the system with the increments of 10-40 mg until the solution became cloudy, which corresponded to the final concentration of 0.41 g/mL. The cloudy solution was filtered through a Millex-GV 0.22 um filter into a pre-weighted aluminum pan and the known mass of clear filtered solution was placed into an oven at 85° C. The solvent was completely evaporated and the residual solid was weighted to determine solubility.
as §1, with “16 mg of” for “10 mg of”, “mixed with 1 mL deionized” for “mixed with 0.5 mL deionized”, “water and was stirred by” for “water and stirred by”, “concentration of 0.4 g/mL. The” for “concentration of 0.41 g/mL. The”

[2] = Stability of aqueous solution of rebaudioside A crystal form; assay type: physicochemical; details: solution from Form 1 crystals containing more than about 1 g/100 g water
Source text: In some sweetening applications it is desirable to provide a sweetener composition of rebaudioside A that has a higher solubility in water than Form 2. […] Increased solubility in water allows more of the sweetener to be dissolved in a food product in order to provide the desired sweetness level. Increased solubility may be desirable in food products such as syrups and concentrates.

Solubility at 22° C. (grams/100 grams water) [1] [grams/100 grams water] | Solubility in water at 24° C. (typical, stated in text) [1] | Concentration left in solution after conversion to Form 2 ([2]; after hours to days) | SMILES | Stability in solution (conversion of dissolved form) [2]
0.154 | ≤ 1 grams rebaudioside A/100 grams | – | C=C1C[C@@]23CC[C@H]4[C@@](C)(CCC[C@@]4(C)C(=O)O[C@@H]4O[C@H](CO)[C@@H](O)[C@H](O)[C@H]4O)[C@@H]2CC[C@]1(O[C@@H]1O[C@H](CO)[C@@H](O)[C@H](O[C@@H]2O[C@H](CO)[C@@H](O)[C@H](O)[C@H]2O)[C@H]1O[C@@H]1O[C@H](CO)[C@@H](O)[C@H](O)[C@H]1O)C3 [Form 2, rebaudioside A] | –
– | – | about 1 g/100 g water | C=C1C[C@@]23CC[C@H]4[C@@](C)(CCC[C@@]4(C)C(=O)O[C@@H]4O[C@H](CO)[C@@H](O)[C@H](O)[C@H]4O)[C@@H]2CC[C@]1(O[C@@H]1O[C@H](CO)[C@@H](O)[C@H](O[C@@H]2O[C@H](CO)[C@@H](O)[C@H](O)[C@H]2O)[C@H]1O[C@@H]1O[C@H](CO)[C@@H](O)[C@H](O)[C@H]1O)C3 [Form 1, rebaudioside A] | tends to convert to Form 2 within hours to days
